The values below come from EP2818471A1, “Nitrogen bicyclic compounds as inhibitors for Scyl1 and Grk5” (Max-Planck-Gesellschaft zur Förderung der Wissenschaften …, priority 2013, dated 2014).

For the first assay, the system named is beta-TC6 cells. As to the kind of experiment: Insulin release in high glucose medium, rat/mouse insulin ELISA. Type of assay: cell-based. The note with it: Mus musculus, Beta-TC6, 2 h, high glucose (4.5 g/L) DMEM, Example 9, Figure 6, ± SEM, read-out: increase of insulin release. As to the method:
Cells were cultured overnight, washed with PBS and then treated with 5 µM of test compounds as well as non-inhibitor controls for 2 h in a high glucose (4.5 g/L) DMEM at 37°C and 5 % (v/v) CO2. Release of insulin was detected using a rat/mouse insulin ELISA.
After incubation, the supernatant of the beta-TC6 insulinoma cells was diluted 1:20, whereas the supernatants of the RIN-T2B-5AH were diluted 1:10. The insulin release was measured with rat/mouse insulin ELISA (Merck Millipore Darmstadt, Cat. # EZRMI-13K) by following the manufacture's protocol. The enzyme activity of the horseradish peroxidase of the immobilized biotinylated antibodies was monitored spectrophotometrically by the increased absorbency at 490 nm, and corrected by the absorbency at 610 nm.
Afterwards, the supernatant was analyzed for insulin using the rat/mouse insulin ELISA (Merck Millipore Darmstadt, Cat. # EZRMI-13K) by following the manufacture's protocol..
Cells were treated for 2 h in a high glucose (4.5 g/L) DMEM media at 37°C and 5 % (v/v) CO2. Insulin release was analyzed using the rat/mouse insulin ELISA.
Background: An ELISA detects its analyte on a solid surface through an enzyme-linked reagent.
With `CC(=O)Nc1cc(-c2cccc(C(=O)NCCO)c2)cn2c(-c3ccc(F)cc3)cnc12` [Cpd c1, reference compound], the activation at 5 µM was 1.3 ± 0.3%.

The test system of another assay is beta-TC6 cells. The assay is described as follows: Insulin HTRF assay, relative activity Ar normalized to sunitinib. Type of assay: cell-based. The note with it: Mus musculus, normalized to positive control sunitinib (5 µM = 100%), Table 10. An outline of the steps:
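Relative activity Ar was scaled between 0% and 100% controls, with sunitinib at 5 µM f.c. as reference. Insulin released by beta-TC6 cells was quantified by sandwich HTRF (Eu-cryptate/XL665 antibodies, 120 min RT). Cells had been seeded 24 or 48 h, then treated 2–4 h at 37°C in induction buffer, 0.5% DMSO.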
The molecule `NC(=O)c1ccc(-c2cnc3ccc(Cc4ccccc4)nn23)cc1` [compound 2, 4-(6-benzylimidazo[1,2-b]pyridazin-3-yl)benzamide] registered an Emax of 20 to 50%.

`Clc1cccc(-c2nnc3ccc(-c4ccc5c(c4)OCO5)cn23)c1` [compound 198, 6-(1,3-benzodioxol-5-yl)-3-(3-chlorophenyl)-[1,2,4]triazolo[4,3-a]pyridine] showed an Emax of 50 to 100%.

In the case of `COc1cc(-c2cnc3ccc(-c4cccc(OC(F)(F)F)c4)nn23)ccc1O` [compound 138, 2-methoxy-4-[6-[3-(trifluoromethoxy)phenyl]imidazo[1,2-b]pyridazin-3-yl]phenol], the Emax was 10 to 20%.

In the case of `CC(=O)Nc1cccc(-c2cn3c(-c4ccc(F)c(Cl)c4)cnc3cn2)c1` [compound 350, N-[3-[3-(3-chloro-4-fluoro-phenyl)imidazo[1,2-a]pyrazin-6-yl]phenyl]acetamide], the maximal response (Emax) was 20 to 50%.

The molecule `c1csc(-c2cnc3cnc(-c4cc5ccccc5s4)cn23)c1` [compound 416, 6-(benzothiophen-2-yl)-3-(2-thienyl)imidazo[1,2-a]pyrazine] showed an Emax of 50 to 100%.

`CC(=O)Nc1ccc(-c2cnc3ccc(-c4ccc(S(C)(=O)=O)cc4)nn23)cc1` [compound 149, N-[4-[6-(4-methylsulfonylphenyl)imidazo[1,2-b]pyridazin-3-yl]phenyl]acetamide] showed an Emax of 10 to 20%.

Regarding `Clc1cccc(-c2nnc3ccc(-c4cccnc4)cn23)c1` [compound 200, 3-(3-chlorophenyl)-6-(3-pyridyl)-[1,2,4]triazolo[4,3-a]pyridine], the Emax lay in the range of 50 to 100%.

`NC(=O)c1ccc(-c2ccc3ncc(-c4cccc(OC(F)(F)F)c4)n3n2)cc1` [compound 117, 4-[3-[3-(trifluoromethoxy)phenyl]imidazo[1,2-b]pyridazin-6-yl]benzamide]: the Emax lay in the range of 20 to 50%.

As for `Fc1ccc(-c2ccc3nnc(-c4cscn4)n3c2)cc1Cl` [compound 228, 4-[6-(3-chloro-4-fluoro-phenyl)-[1,2,4]triazolo[4,3-a]pyridin-3-yl]thiazole], the Emax lay in the range of 20 to 50%.

As to `CN(C)c1cccc(-c2cnc3cnc(-c4ccsc4)cn23)c1` [compound 343, N,N-dimethyl-3-[6-(3-thienyl)imidazo[1,2-a]pyrazin-3-yl]aniline], the Emax fell in the range of 50 to 100%.

`COc1ccc(-c2nnc3ccc(-c4ccc(S(C)(=O)=O)cc4)cn23)cc1OC` [compound 186, 3-(3,4-dimethoxyphenyl)-6-(4-methylsulfonylphenyl)-[1,2,4]triazolo[4,3-a]pyridine] registered an Emax of 10 to 20%.

In turn, `CN(C)c1ccc(-c2cnc3cnc(-c4cccc(C(=O)NCCO)c4)cn23)cc1` [compound 286, 3-[3-(4-dimethylaminophenyl)imidazo[1,2-a]pyrazin-6-yl]-N-(2-hydroxyethyl)benzamide] displayed an Emax of 20 to 50%.

The molecule `Clc1cccc(-c2nnc3ccc(-c4ccncc4)cn23)c1` [compound 199, 3-(3-chlorophenyl)-6-(4-pyridyl)-[1,2,4]triazolo[4,3-a]pyridine] had an Emax of 50 to 100%.

On to `COc1ccc(-c2nnc3ccc(-c4cccs4)cn23)cc1OC` [compound 191, 3-(3,4-dimethoxyphenyl)-6-(2-thienyl)-[1,2,4]triazolo[4,3-a]pyridine], for which the Emax was in the range of 50 to 100%.

In the case of `CCCNc1ccc2ncc(-c3ccc(C(=O)O)cc3)n2n1` [compound 20, 4-[6-(propylamino)imidazo[1,2-b]pyridazin-3-yl]benzoic acid], the Emax is 10 to 20%.

Molecule `Nc1ccc(-c2cnc3ccc(Cc4ccccc4)nn23)cn1` [compound 161, 5-(6-benzylimidazo[1,2-b]pyridazin-3-yl)pyridin-2-amine] yielded an Emax of 20 to 50%.

For `CCCNc1ccc2ncc(-c3cccc(/C=C/C(=O)O)c3)n2n1` [compound 21, (E)-3-[3-[6-(propylamino)imidazo[1,2-b]pyridazin-3-yl]phenyl]prop-2-enoic acid], the Emax was in the range of 10 to 20%.

Take `Clc1cccc(-c2cn3c(-c4cccs4)cnc3cn2)c1` [compound 421, 6-(3-chlorophenyl)-3-(2-thienyl)imidazo[1,2-a]pyrazine]: the maximal effect (Emax) lay in the range of 20 to 50%.

The molecule `CN(C)C(=O)c1ccc(-c2cnc3cnc(-c4ccccc4Oc4ccccc4)cn23)cc1` [compound 430, N,N-dimethyl-4-[6-(2-phenoxyphenyl)imidazo[1,2-a]pyrazin-3-yl]benzamide] had an Emax of 20 to 50%.

Molecule `COc1ccc(-c2cn3c(-c4ccc(OC)nc4)cnc3cn2)cn1` [compound 382, 3,6-bis(6-methoxy-3-pyridyl)imidazo[1,2-a]pyrazine] yielded a maximal response (Emax) of 20 to 50%.

Consider `OCc1ccc(-c2cnc3cnc(-c4ccc(Cl)cc4Cl)cn23)cc1` [compound 374, [4-[6-(2,4-dichlorophenyl)imidazo[1,2-a]pyrazin-3-yl]phenyl]methanol], for which the Emax was in the range of 20 to 50%.

Regarding `CCOc1cccc(-c2cn3c(-c4ccc5c(c4)OCO5)cnc3cn2)c1` [compound 302, 3-(1,3-benzodioxol-5-yl)-6-(3-ethoxyphenyl)imidazo[1,2-a]pyrazine], the Emax fell in the range of 50 to 100%.

In the case of `Cc1ccccc1-c1cnc2cnc(-c3cccc(F)c3)cn12` [compound 404, 6-(3-fluorophenyl)-3-(o-tolyl)imidazo[1,2-a]pyrazine], the maximal response (Emax) lay within 10 to 20%.

The molecule `COc1ccc(-c2ccc3nnc(-c4cscn4)n3c2)c(C)c1` [compound 231, 4-[6-(4-methoxy-2-methyl-phenyl)-[1,2,4]triazolo[4,3-a]pyridin-3-yl]thiazole] displayed a maximal effect (Emax) of 50 to 100%.

As for `Oc1cccc(-c2nnc3ccc(-c4cccc5ncccc45)cn23)c1` [compound 209, 3-[6-(5-quinolyl)-[1,2,4]triazolo[4,3-a]pyridin-3-yl]phenol], the maximal effect (Emax) is 20 to 50%.

`Clc1cccc(-c2nnc3ccc(-c4cncnc4)cn23)c1` [compound 203, 3-(3-chlorophenyl)-6-pyrimidin-5-yl-[1,2,4]triazolo[4,3-a]pyridine] registered an Emax of 20 to 50%.

For another assay, the system named is beta-TC6 cell system. As to the kind of experiment: Comparison of insulin release with commercially available inhibitors, mouse/rat insulin ELISA. Type of assay: cell-based. The note with it: 2 h; concentration not given. As to the method:
Based on literature references, several commercially available inhibitors were compared with compounds according to the invention. […] Cells were cultured for 24 h before treated with the inventive compounds and control inhibitors for 2 h at 37 °C and 5 % (v/v) CO2. Insulin in the supernatant was detected by mouse/rat insulin ELISA.
As for `CCCCNC(=O)NS(=O)(=O)c1ccc(C)cc1` [Tolbutamide, reference compound], the “effect on insulin release” value was “no effect”.

Regarding `COc1ccc(Cl)cc1C(=O)NCCc1ccc(S(=O)(=O)NC(=O)NC2CCCCC2)cc1` [Glibenclamide, reference compound], the “effect on insulin release” value is listed as “no effect”.

Still in this assay, the particulars now being: Mus musculus, Beta-TC6; 5µM, 2 h; DMSO = 0; Table 9.
`NC(=O)c1ccc(-c2cnc3ccc(Cc4ccccc4)nn23)cc1` [compound 2, 4-(6-benzylimidazo[1,2-b]pyridazin-3-yl)benzamide]: the activation at 5 µM stood at 65.7%.

Staying with this assay, now noted: Mus musculus, Beta-TC6; 10µM, 2 h; DMSO = 0; Table 9.
`O=C1C(Cl)=C(N2C(=O)CCC2=O)C(=O)c2ccccc21` [MEK, reference compound] had an activation at 10 µM of 67.3%.

The subject of the next assay is C2C12 cells. The assay is described as follows: 2-NBDG glucose uptake by flow cytometry. The note with it: C2C12, 1 h compound treatment; Figure 10.
Method: Furthermore, as internal controls, samples of glucose free media, respectively glucose free media with test compound, were tested. Subsequently, cells were washed, trypsinized and harvested in ice-cold PBS before centrifuged at 1.6 x10^3 rpm at 4°C. Cells were analyzed by flow cytometry (FACS Calibur, BD Bioscience, respectively a BD Accuri® C6 Flow Cytometer).
To investigate the impact of the Grk5 inhibitors on Glucose uptake, cells were cultured 1 h in glucose free media supplied with 100 µM 2-NBDG at 37 °C and 5 % (v/v) CO2. Furthermore, as internal controls, samples of glucose free media, respectively glucose free media with test compounds, were measured. Fluorescence was analyzed by flow cytometer (FACS Calibur, BD Bioscience, respectively a BD Accuri® C6 Flow Cytometer).
In the case of `NC(=O)c1ccc(-c2cnc3ccc(Cc4ccccc4)nn23)cc1` [compound 2, 4-(6-benzylimidazo[1,2-b]pyridazin-3-yl)benzamide], the “uptake of 2-NBDG compared with negative control background” value is “significantly increased uptake of 2-NBDG”.

One may read the Emax as the maximal effect, on the per cent scale that the assay sets.
